Results on 23 compounds are retold here after patent US20180044343A1, “BICYCLIC IMIDAZOLO DERIVATIVE” (Sumitomo Dainippon Pharma Co., Ltd., priority 2015, published 2018).

The target of data set [1] is T1, PDE1C (Homo sapiens, UniProt Q14123). In words: In vitro SPA PDE1 inhibition assay (PDE1C). It counts as biochemical. The conditions noted are these: [3H]-cGMP 100 nM. On the procedure:
(§1) The commercially available Scintillation Proximity Assay (SPA) system (Perkinelmer) was used for PDE1 inhibition assays. SPA Yttrium Silicate beads preferentially binds to non-cyclic GMP compared to cyclic GMP (cGMP) in the presence of zinc sulphate, which enables to measure the amount of enzyme reaction product ([^3H]-GMP) by scintillation counting.
(§2) For PDE1 inhibition assay, 10 μl of the test compounds in 5% dimethyl sulfoxide diluted in SPA assay buffer (1 mM CaCl2, 10 mM MgSO4, 10 mM Tris-HCl, pH 7.4) were placed in a 96-well white microtiter plate, and 20 μl of [^3H]-cGMP solution (100 nM final concentration, Perkinelmer) in SPA assay buffer was added. Assays were initiated by adding 20 μl of PDE (1A3, 1B or 1C) enzyme solution including calmodulin (final concentration 1 μg/ml). After 30 min incubation at 27° C., the reaction was stopped by the addition of 50 μl of a suspension of 10 mg/ml SPA beads in 18 mM ZnSO4. The microtiter plates were settled for 60 min, and then were measured in a TopCount NXT scintillation counter (PerkinElmer). IC50 values were determined from sigmoidal curves by plotting the percentage of PDE activity versus log compound concentration. IC50 was defined as the concentration of the test compounds required to inhibit the cyclic nucleotide hydrolyzing activities of tested PDEs by 50%.

Data set [2] concerns the target T1, PDE1C. In words: In vitro HTRF PDE1 inhibition assay (PDE1C). The data set is classed as biochemical. The conditions noted are these: 100 nM cyclic GMP. An excerpt: (§3) An exemplary procedure for the in vitro Homogenous Time Resolved Fluorescence assay, which can be used to determine the inhibitory action of compounds of the present invention toward PDE1 or its isoforms, follows.
(§4) The HTRF PDE1 assay utilized the HTRF (Homogenous Time Resolved Fluorescence) technology, which is based on the competition between unlabeled cyclic nucleotide and cyclic nucleotide labeled with XL665 for the binding to cyclic nucleotide-specific antibody labeled with cryptate. The HTRF signal is thus inversely proportional to the concentration of cyclic nucleotide being measured. Since phosphodiesterases break down cyclic nucleotides, the HTRF signal was used to determine PDE activity.
(§5) The Cisbio cGMP HTRF assay kit (Cat no: 62GM2PEC) was utilized. Cyclic GMP was diluted to 200 nM in HTRF assay buffer (1 mM CaCl2, 10 mM MgCl2, 10 mM Tris-HCl, 0.1% BSA, pH 7.4). 10 μl of compound or DMSO was diluted in 200 nM cyclic GMP solution and added to wells of a 96 well white plate to give 100 nM cyclic GMP in 1% DMSO final concentration. PDE (1A3, 1B or 1C) was diluted to 2× working concentration in HTRF assay buffer with 2 μg/ml Calmodulin, and 10 μl was added to initiate the reaction. The plate was then incubated for 45 minutes at 27° C. d2-Labelled cyclic GMP and anti-cGMP cryptate were diluted in 50 mM phosphate buffer, 0.8 M KF, 1% Triton X100, 0.2% BSA, pH 7.0. Following incubation 10 μl d2-cGMP, then 10 μl anti cGMP cryptate were added to each well and the plate was incubated for 60 minutes at room temperature. The plate was then read on Perkin Elmer EnVision at 2 different FRET readings ex/em 340 nm/665 nm and 340 nm/615 nm.
(§6) Compounds having an IC50 of <1 μM are denoted as +++. Compounds having an IC50 of 1-10 μM are denoted as ++. Compounds having an IC50 of 10-100 μM are denoted as +.

Data set [3] deals with T2, PDE1A3 (Homo sapiens, UniProt P54750). In words: In vitro SPA PDE1 inhibition assay (PDE1A3). It counts as biochemical. The conditions noted are these: PDE1A3, [3H]-cGMP 100 nM. On the procedure: as §1, §2
The target of data set [4] is T3, PDE1B (Homo sapiens, UniProt Q01064). In words: In vitro SPA PDE1 inhibition assay (PDE1B). The data set is classed as biochemical. The conditions noted are these: [3H]-cGMP 100 nM. Here is the method:
as §1, §2

Data set [5] addresses T2, PDE1A3. Kind of data set: In vitro HTRF PDE1 inhibition assay (PDE1A3). It counts as biochemical. To be noted: PDE1A3, 100 nM cyclic GMP.
Description: as §3, §4, §5, §6
In general terms: Time-resolved FRET reads energy transfer from a long-lived donor to a nearby acceptor.

Data set [6] deals with T3, PDE1B. Kind of data set: In vitro HTRF PDE1 inhibition assay (PDE1B). The data set is classed as biochemical. The conditions noted are these: in vitro PDE1B HTRF Assay; read-out: IC50.
Description: The Cisbio cGMP HTRF assay kit (Cat no: 62GM2PEC) was utilized. Cyclic GMP was diluted to 200 nM in HTRF assay buffer (1 mM CaCl2, 10 mM MgCl2, 10 mM Tris-HCl, 0.1% BSA, pH 7.4). […] PDE (1A3, 1B or 1C) was diluted to 2× working concentration in HTRF assay buffer with 2 μg/ml Calmodulin, and 10 μl was added to initiate the reaction. The plate was then incubated for 45 minutes at 27° C. d2-Labelled cyclic GMP and anti-cGMP cryptate were diluted in 50 mM phosphate buffer, 0.8 M KF, 1% Triton X100, 0.2% BSA, pH 7.0. Following incubation 10 μl d2-cGMP, then 10 μl anti cGMP cryptate were added to each well and the plate was incubated for 60 minutes at room temperature. The plate was then read on Perkin Elmer EnVision at 2 different FRET readings ex/em 340 nm/665 nm and 340 nm/615 nm.
Data set [7] is described as follows: Evaluation of bioavailability, PK test in rats. It counts as in vivo. To be noted: rat; 7 week-old SD rats, intravenous vs oral administration, plasma LC-MS. On the procedure:
This test can be used to assess pharmacokinetics of the compounds of the present invention. Each compound of the invention was administered to 7 week-old SD rats intravenously with a solution in saline: 0.1N HCl=9:1 or orally with a 0.5% suspension in methyl cellulose, and each blood sample was collected at an appropriate interval as follows:
5, 15, and 30 minutes, and 1, 2, 4, 6, and 24 hours after intravenous administration
15 and 30 minutes, and 1, 2, 4, 6, and 24 hours after oral administration
The plasma was obtained from each blood, and the concentration of each compound in the plasma was measured with an LC-MS to calculate each pharmacokinetic parameter based on the concentration change.

For orientation: IC50 means the midpoint of a concentration-inhibition curve. A word on the bioavailability: it is dose-corrected exposure relative to a reference, in per cent. High values mean much systemic uptake, low ones little systemic uptake.

T3 sequence (Q01064 whole entry): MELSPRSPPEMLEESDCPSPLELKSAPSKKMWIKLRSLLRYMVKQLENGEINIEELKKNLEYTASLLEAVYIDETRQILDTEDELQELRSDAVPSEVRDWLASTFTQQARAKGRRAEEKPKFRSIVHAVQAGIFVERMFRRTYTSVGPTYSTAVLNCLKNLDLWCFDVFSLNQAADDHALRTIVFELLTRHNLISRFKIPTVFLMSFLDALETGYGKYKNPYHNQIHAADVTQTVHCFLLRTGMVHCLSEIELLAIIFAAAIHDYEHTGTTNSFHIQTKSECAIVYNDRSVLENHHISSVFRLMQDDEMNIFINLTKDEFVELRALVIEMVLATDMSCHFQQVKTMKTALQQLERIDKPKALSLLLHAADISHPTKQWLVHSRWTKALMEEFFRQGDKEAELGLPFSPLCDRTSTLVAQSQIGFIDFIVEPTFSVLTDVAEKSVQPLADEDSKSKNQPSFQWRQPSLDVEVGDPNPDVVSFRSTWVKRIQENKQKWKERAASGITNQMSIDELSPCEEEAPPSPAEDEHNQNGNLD

`CCn1c(OC[C@H]2CC[C@H](OC)CC2)nn2c(C3CCOCC3)ncc2c1=O` [Example 91]: the IC50 on PDE1C [1] is 0.199 µM; at PDE1C [2] it was less than 1 µM; at PDE1A3 [3], 0.074 µM; on PDE1B [4] it was 0.028 µM; against PDE1A3 [5] it was less than 1 µM; on PDE1B [6], less than 1000 nM.

Regarding `COc1nn2c(C3CCOCC3)ncc2c(=O)n1C[C@H]1CC[C@@H](OC)CC1` [Example 101], the IC50 against PDE1C [1] is 0.192 µM; against PDE1C [2], less than 1 µM; against PDE1A3 [3] it was 0.121 µM; against PDE1B [4], 0.096 µM; on PDE1A3 [5], less than 1 µM; on PDE1B [6] it was less than 1000 nM.

Consider `Cn1c(OCc2ccc(F)cc2)nn2c(C3CCOCC3)nc(F)c2c1=O` [Example 116, 5-Fluoro-2-[(4-fluorobenzyl)oxy]-3-methyl-7-(tetrahydro-2H-pyran-4-yl)imidazo[5,1-f][1,2,4]triazin-4(3H)-one], for which the concentration for half-maximal inhibition (IC50) was 0.771 µM against PDE1C [1]; less than 1 µM against PDE1C [2]; 0.207 µM against PDE1A3 [3]; 0.084 µM on PDE1B [4]; less than 1 µM against PDE1A3 [5]; less than 1000 nM on PDE1B [6].

For the compound `CNc1nn2c(C3CCOCC3)ncc2c(=O)n1Cc1ccccc1` [Example 200], the 50% inhibitory concentration (IC50) on PDE1C [1] is 0.024 µM; against PDE1C [2], less than 1 µM; on PDE1A3 [3], 0.133 µM; against PDE1B [4], 0.109 µM; at PDE1A3 [5] it was less than 1 µM; at PDE1B [6], less than 1000 nM.

In the case of `Cc1nn2c(C3CCOCC3)ncc2c(=O)n1Cc1ccccc1` [Example 238, 3-Benzyl-2-methyl-7-(tetrahydro-2H-pyran-4-yl)imidazo[5,1-f][1,2,4]triazin-4(3H)-one], the IC50 is 0.027 µM at PDE1C [1]; less than 1 µM against PDE1C [2]; 0.137 µM at PDE1A3 [3]; 0.145 µM at PDE1B [4]; less than 1 µM against PDE1A3 [5]; less than 1000 nM at PDE1B [6].

Regarding `CCc1nn2c(C3CCOCC3)ncc2c(=O)n1CC1CCC(F)(F)CC1` [Example 239, 3-[(4,4-Difluorocyclohexyl)methyl]-2-ethyl-7-(tetrahydro-2H-pyran-4-yl)imidazo[5,1-f][1,2,4]triazin-4(3H)-one], the half-maximal inhibitory concentration (IC50) on PDE1C [1] is 0.125 µM; against PDE1C [2] it was less than 1 µM; on PDE1A3 [3], 0.065 µM; at PDE1B [4] it was 0.079 µM; against PDE1A3 [5], less than 1 µM; on PDE1B [6], less than 1000 nM.

Take `CCO[C@H]1CC[C@H](COc2nn3c(C4CCOCC4)ncc3c(=O)n2CC)CC1` [Example 249]: the 50% inhibitory concentration (IC50) was less than 1 µM against PDE1C [2], less than 1 µM against PDE1A3 [5] and less than 1000 nM on PDE1B [6].

With `CCn1c(OC[C@H]2CC[C@H](C(F)(F)F)CC2)nn2c(C3CCOCC3)ncc2c1=O` [Example 251], the IC50 on PDE1C [2] was less than 1 µM; against PDE1A3 [5], less than 1 µM; on PDE1B [6], less than 1000 nM.

As for `COc1nn2c(C3CCOCC3)ncc2c(=O)n1C[C@H]1CC[C@H](OC)CC1` [Example 253], the IC50 at PDE1C [2] is less than 1 µM; against PDE1A3 [5], less than 1 µM; at PDE1B [6] it was less than 1000 nM.

In the case of `Cn1c(OC2CCCCC2)nn2c(C3CCOCC3)ncc2c1=O` [Example 255, 2-(cyclohexyloxy)-3-methyl-7-(tetrahydro-2H-pyran-4-yl)imidazo[5,1-f][1,2,4]triazin-4(3H)-one], the concentration for half-maximal inhibition (IC50) on PDE1C [2] is less than 1 µM; at PDE1A3 [5], less than 1 µM; at PDE1B [6] it was less than 1000 nM.

Consider `CCOC[C@H]1CC[C@H](Oc2nn3c(C4CCOCC4)ncc3c(=O)n2C)CC1` [Example 256, 2-{[trans-4-(ethoxymethyl)cyclohexyl]oxy}-3-methyl-7-(tetrahydro-2H-pyran-4-yl)-imidazo-[5,1-][1,2,4]triazin-4(3H)-one], for which, in data set [7], the bioavailability is 14.3%. The figures for the IC50 against PDE1C [2], against PDE1A3 [5] and on PDE1B [6] were less than 1 µM, less than 1 µM and less than 1000 nM, respectively.

Regarding `CCOC[C@H]1CC[C@H](Oc2nn3c(C4CCOCC4)ncc3c(=O)n2CC)CC1` [Example 258], the concentration for half-maximal inhibition (IC50) at PDE1C [2] is less than 1 µM; at PDE1A3 [5] it was less than 1 µM; on PDE1B [6], less than 1000 nM.

Regarding `CCn1c(OCCC2(C(F)(F)F)CC2)nn2c(C3CCOCC3)ncc2c1=O` [Example 283], the half-inhibitory concentration (IC50) is less than 1 µM against PDE1C [2], less than 1 µM at PDE1A3 [5] and less than 1000 nM on PDE1B [6].

As for `Cn1c(OC2CCC(C)(C)CC2)nn2c(C3CCOCC3)ncc2c1=O` [Example 302], the IC50 on PDE1C [2] is less than 1 µM; at PDE1A3 [5], less than 1 µM; at PDE1B [6] it was less than 1000 nM.

Turning to `CCn1c(OC2CCC(F)(F)CC2)nn2c(C3CCOCC3)ncc2c1=O` [Example 304, 2-[(4,4-difluorocyclohexyl)oxy]-3-ethyl-7-(tetrahydro-2H-pyran-4-yl)imidazo[5,1-f][1,2,4]triazin-4(3H)-one], the IC50 on PDE1C [2] is less than 1 µM; against PDE1A3 [5] it was less than 1 µM; at PDE1B [6], less than 1000 nM.

As to `CCn1c(O[C@H]2CC[C@H](C(F)(F)F)CC2)nn2c(C3CCOCC3)ncc2c1=O` [Example 306], the results for the concentration for half-maximal inhibition (IC50) against PDE1C [2], against PDE1A3 [5] and at PDE1B [6] were less than 1 µM, less than 1 µM and less than 1000 nM, respectively.

As to `CO[C@H]1CC[C@H](Oc2nn3c(C4CCOCC4)ncc3c(=O)n2C)CC1` [Example 309], the figures for the IC50 on PDE1C [2], against PDE1A3 [5] and at PDE1B [6] were 1 to 10 µM, less than 1 µM and less than 1000 nM, respectively.

For the compound `CCn1c(O[C@H]2CC[C@H](OC)CC2)nn2c(C3CCOCC3)ncc2c1=O` [Example 310], the figures for the IC50 on PDE1C [2], against PDE1A3 [5] and at PDE1B [6] were less than 1 µM, less than 1 µM and less than 1000 nM, respectively.

With `CO[C@H]1CC[C@@H](Oc2nn3c(C4CCOCC4)ncc3c(=O)n2C)CC1` [Example 312], the concentration for half-maximal inhibition (IC50) against PDE1C [2] was less than 1 µM; against PDE1A3 [5] it was less than 1 µM; at PDE1B [6], less than 1000 nM.

For `CCn1c(O[C@H]2CC[C@@H](OC)CC2)nn2c(C3CCOCC3)ncc2c1=O` [Example 313], the IC50 against PDE1C [2] is less than 1 µM; against PDE1A3 [5], less than 1 µM; at PDE1B [6] it was less than 1000 nM.

On to `CCO[C@H]1CC[C@H](Oc2nn3c(C4CCOCC4)ncc3c(=O)n2CC)CC1` [Example 315], for which the half-inhibitory concentration (IC50) is less than 1 µM at PDE1C [2], less than 1 µM on PDE1A3 [5] and less than 1000 nM at PDE1B [6].

Take `CCn1c(O[C@H]2CC[C@H](COC)CC2)nn2c(C3CCOCC3)ncc2c1=O` [Example 317, 3-ethyl-2-{[trans-4-(methoxymethyl)cyclohexyl]oxy}-7-(tetrahydro-2H-pyran-4-yl)-imidazo[5,1-][1,2,4]triazin-4(3H)-one]: the IC50 against PDE1C [1] is 0.194 µM; against PDE1C [2], less than 1 µM; at PDE1A3 [3], 0.042 µM; at PDE1B [4], 0.027 µM; at PDE1A3 [5], less than 1 µM; on PDE1B [6] it was less than 1000 nM.

For `COC[C@H]1CC[C@@H](Oc2nn3c(C4CCOCC4)ncc3c(=O)n2C)CC1` [Example 318], the 50% inhibitory concentration (IC50) was less than 1 µM against PDE1C [2], less than 1 µM on PDE1A3 [5] and less than 1000 nM at PDE1B [6].
